Results from patent US20120202756A1, “USE OF PRODRUGS TO AVOID GI MEDIATED ADVERSE EVENTS” (priority 2009, published 2012).
Values after ≈ are worked out from the molar mass of the structure shown. Values joined by “and” are separate entries in the source; they are usually repeats but may differ in a detail not shown here. Equal entries are not always repeated. Where two headings read alike, the source gives them in different places.

Legend:
[1] = tested on: Bacteroides thetaiotamicron; assay: MIC agar dilution; assay type: cell-based
[2] = tested on: Bifidobacterium adolescentis; assay: MIC agar dilution; assay type: cell-based; settings: NCTC11814
[3] = tested on: Bifidobacterium dentium; assay: MIC agar dilution; assay type: cell-based; settings: NCTC11816
[4] = tested on: Bifidobacterium longum; assay: MIC agar dilution; assay type: cell-based; settings: NCTC11818
[5] = tested on: Clostridium bifermentans; assay: MIC agar dilution; assay type: cell-based; settings: Paraclostridium bifermentans, ATCC638
[6] = tested on: Clostridium difficile; assay: MIC agar dilution; assay type: cell-based; settings: Clostridioides difficile
[7] = tested on: Clostridium novyi; assay: MIC agar dilution; assay type: cell-based; settings: ATCC19402
[8] = tested on: Clostridium perfringens; assay: microbe, parasite or virus in culture; assay type: cell-based
[9] = tested on: Clostridium sordellii; assay: MIC agar dilution; assay type: cell-based; settings: Paraclostridium sordellii, NCTC13356; NCTC 13356
[10] = tested on: Clostridium sporogenes; assay: MIC agar dilution; assay type: cell-based; settings: ATCC3584, ATCC 3584
[11] = tested on: Eggerthella lenta; assay: MIC agar dilution; assay type: cell-based; settings: ATCC43055, ATCC 43055
[12] = tested on: Fusobacterium necrophorum; assay: MIC agar dilution; assay type: cell-based; settings: clinical isolate
[13] = tested on: Peptostreptococcus anaerobius; assay: MIC agar dilution; assay type: cell-based; settings: NCTC11460
[14] = tested on: Peptostreptococcus magnus; assay: MIC agar dilution; assay type: cell-based; settings: Finegoldia magna; clinical isolate
[15] = tested on: Peptostreptococcus micros; assay: MIC agar dilution; assay type: cell-based; settings: Parvimonas micra; clinical isolate
[16] = tested on: Porphyromonas assacharolyticus; assay: MIC agar dilution; assay type: cell-based; settings: clinical isolate
[17] = tested on: Porphyromonas endodontalis; assay: MIC agar dilution; assay type: cell-based; settings: clinical isolate
[18] = tested on: Prevotella bivia; assay: MIC agar dilution; assay type: cell-based; settings: ATCC29303, ATCC 29303
[19] = tested on: Prevotella denticola; assay: MIC agar dilution; assay type: cell-based; settings: clinical isolate
[20] = tested on: Veillonella atypical; assay: MIC agar dilution; assay type: cell-based; settings: NCTC11830
[21] = tested on: Veillonella parvula; assay: MIC agar dilution; assay type: cell-based; settings: NCTC11810
[22] = tested on: Veillonella spp.; assay: MIC agar dilution; assay type: cell-based; settings: clinical isolate
[23] = Bioavailability of metronidazole from its prodrugs in the rat; settings: male, Sprague Dawley, rat, in vivo, po
Method: In order to confirm successful absorption and subsequent hydrolysis of these metronidazole prodrugs, a comparative bioavailability study was undertaken in the rat Methods—Three groups of five male Sprague Dawley rats were orally dosed with either metronidazole itself or its succinyl valine or glutaryl para-amino benzoic acid ester prodrugs. Serial tail vein blood samples were subsequently collected via an indwelling cannuala into EDTA tubes containing a stabilising cocktail (including 6 mg/mL NaF) to prevent post collection enzymic hydrolysis of the prodrug. Separated plasma samples were subjected to bioanalysis for both the prodrugs and metronidazole itself using a qualified LC/MS-MS bioanalytical method.

[24] = tested on: Bacteroides fragilis; assay: MIC agar dilution
[25] = tested on: Propionibacterium acnes; assay: MIC agar dilution
[26] = tested on: Campylobacter coli; assay: MIC agar dilution
[27] = tested on: Campylobacter jejuni; assay: MIC agar dilution
[28] = tested on: Helicobacter pylori; assay: MIC agar dilution
[29] = target: human acetylcholineesterase (Homo sapiens, UniProt P22303); assay: Human acetylcholineesterase activity in vitro assay (CEREP); assay type: biochemical
[30] = Stability in USP simulated gastric juice; assay type: in vitro ADME; settings: USP SGF pH 1.1, pepsin […], prodrug 20 μg/mL
Text: To minimize the direct inhibitory action of this drug on gastric emptying/gut motility—and resultant nausea—the prodrug should not undergo premature chemical or enzymic cleavage back to the parent drug while within the gut lumen.

[31] = Stability in simulated intestinal juice (FaSSIF); assay type: in vitro ADME; settings: FaSSIF pH 6.5, pancreatin 1%, prodrug 20 μg/mL
Method: (§1) To avoid direct interaction between the active drug and the gut microfloral population, the prodrug should not undergo premature chemical or enzymic cleavage back to the parent dug while within the gut lumen. To confirm this the prodrugs were incubated with USP SGF (simulated gastric fluid), FeSSIF (fed state simulated intestinal fluid) and FaSSIF (fasted state simulated intestinal fluid) and remaining prodrug and any generated active drug assayed by use of a qualified LC-MS/MS analytical method.
(§2) Method—Prodrug (20 μg/mL) in the FaSSIF cocktail comprising sodium taurocholate 3 mM, lecithin 0.75 mM, NaOH 8.7 mM, NaH2PO4. H2O 28.7 mM, NaCl 106 mM, pancreatin 1% (overall pH 6.5) was incubated for 2 h at 37° C. After acidifying the incubation to stop any reaction the amount of prodrug remaining and drug generated were determined using a qualified LC-MS/MS method.
(§3) To minimize the direct inhibitory action of this drug on gastric emptying/gut motility—and resultant nausea—the prodrug should not undergo premature chemical or enzymic cleavage back to the parent drug while within the gut lumen. To confirm this, the prodrugs were incubated with USP SGF (simulated gastric fluid), FeSSIF (fed state simulated intestinal fluid) and FaSSIF (fasted state simulated intestinal fluid) and remaining prodrug, and any generated active drug, assayed by use of a qualified LC-MS/MS analytical method.
as §2, with “Prodrug” for “Method—Prodrug”
as §1, with “gut,” for “gut microfloral population,”

[32] = Stability in simulated intestinal juice (FeSSIF); assay type: in vitro ADME; settings: FeSSIF pH 5.0, pancreatin 1%
Method: as §1
Pancreatin was again added at 1%.
as §3
as §1, with “gut,” for “gut microfloral population,”

[33] = Bioavailability of donepezil from its prodrugs in the male beagle dog; settings: relative bioavailability of donepezil vs dosing donepezil itself, male dogs
Text: (§4) Subsequent pharmacokinetic analysis was then undertaken using Win NonLin to generate the relevant PK parameters including Cmax, Tmax and AUC and T1/2.

[34] = Bioavailability of donepezil from its prodrugs in the cynomolgus monkey; settings: relative bioavailability of donepezil vs dosing donepezil itself, male monkeys
Text: as §4

[35] = NCTC13366, NCTC 13366 - NAP1/027
[36] = antibiotic-susceptible clinical isolate
[37] = clinical isolate MIC clindamycin 0.5 mg/L
[38] = clinical isolate (first listed, r83)
[39] = clinical isolate (second listed, r85)

human acetylcholineesterase, sequence (P22303 32-614): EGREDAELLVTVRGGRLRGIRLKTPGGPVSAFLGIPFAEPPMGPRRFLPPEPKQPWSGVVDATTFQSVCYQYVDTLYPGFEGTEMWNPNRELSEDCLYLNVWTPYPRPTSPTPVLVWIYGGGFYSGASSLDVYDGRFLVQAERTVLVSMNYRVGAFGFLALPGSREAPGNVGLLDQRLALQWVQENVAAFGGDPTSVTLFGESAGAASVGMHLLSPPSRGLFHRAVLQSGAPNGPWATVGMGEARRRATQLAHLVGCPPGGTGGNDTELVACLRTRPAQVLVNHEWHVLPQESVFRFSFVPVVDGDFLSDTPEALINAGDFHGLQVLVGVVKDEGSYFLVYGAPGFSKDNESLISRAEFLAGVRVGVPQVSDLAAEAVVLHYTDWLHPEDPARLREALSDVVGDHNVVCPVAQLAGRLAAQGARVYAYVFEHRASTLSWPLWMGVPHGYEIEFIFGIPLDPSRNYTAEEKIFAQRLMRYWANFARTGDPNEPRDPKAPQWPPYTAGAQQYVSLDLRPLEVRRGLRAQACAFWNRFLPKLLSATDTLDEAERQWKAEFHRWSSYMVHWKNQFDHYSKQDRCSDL

Cc1ncc([N+](=O)[O-])n1CCOC(=O)CCC(=O)N[C@H](C(=O)O)C(C)C [Metronidazole succinyl valine ester, Metronidazole-[succinyl-(S)-valine]ester]
MIC ([1]; ATCC29741): > 64 µg/mL
MIC ([1]; NCTC10582): > 64 µg/mL
MIC [2]: > 64 µg/mL
MIC [3]: > 64 µg/mL
MIC [4]: > 64 µg/mL
MIC [5]: > 64 µg/mL
MIC ([6]; ATCC700057, ATCC 700057): 32 µg/mL (≈ 86.4 µM)
MIC [6, 35]: 64 µg/mL (≈ 173 µM)
MIC [6, 36]: 32 µg/mL (≈ 86.4 µM)
MIC [7]: > 64 µg/mL
MIC [8]: > 64 µg/mL
MIC ([8]; ATCC13124): > 64 µg/mL
MIC [9]: > 64 µg/mL
MIC [10]: 32 µg/mL (≈ 86.4 µM)
MIC [11]: > 64 µg/mL
MIC [12]: 32 µg/mL (≈ 86.4 µM)
MIC [13]: 32 µg/mL (≈ 86.4 µM)
MIC [14]: 64 µg/mL (≈ 173 µM)
MIC [15]: 64 µg/mL (≈ 173 µM)
MIC [16]: > 64 µg/mL
MIC [17]: > 64 µg/mL
MIC [18]: > 64 µg/mL
MIC [19]: > 64 µg/mL
MIC [20]: > 64 µg/mL
MIC [21]: > 64 µg/mL
MIC [22]: > 64 µg/mL
Tmax [23]: 2.0 h
MIC [24]: > 64 µg/mL
MIC ([24]; ATCC25285): > 64 µg/mL
MIC ([25]; Cutibacterium acnes): > 64 µg/mL
MIC [25, 37]: >64 µg/mL
MIC [26]: > 64 µg/mL
MIC ([26]; ATCC33559): > 64 µg/mL
MIC [27]: > 64 µg/mL
MIC ([27]; ATCC33560): > 64 µg/mL
MIC [28, 38]: 64 µg/mL (≈ 173 µM)
MIC [28, 39]: 64 µg/mL (≈ 173 µM)

Cc1ncc([N+](=O)[O-])n1CCOC(=O)CCCC(=O)Nc1ccc(C(=O)O)cc1 [Metronidazole glutaryl PABA ester, Metronidazole-(glutaryl-PABA) ester]
MIC ([1]; ATCC29741): > 64 µg/mL
MIC ([1]; NCTC10582): > 64 µg/mL
MIC [2]: > 64 µg/mL
MIC [3]: > 64 µg/mL
MIC [4]: > 64 µg/mL
MIC [5]: 64 µg/mL (≈ 158 µM)
MIC ([6]; ATCC700057, ATCC 700057): 8 µg/mL (≈ 19.8 µM)
MIC [6, 35]: 16 µg/mL (≈ 39.6 µM)
MIC [6, 36]: 8 µg/mL (≈ 19.8 µM)
MIC [7]: 32 µg/mL (≈ 79.1 µM)
MIC [8]: > 64 µg/mL
MIC ([8]; ATCC13124): > 64 µg/mL
MIC [9]: 64 µg/mL (≈ 158 µM)
MIC [10]: 8 µg/mL (≈ 19.8 µM)
MIC [11]: 32 µg/mL (≈ 79.1 µM)
MIC [12]: 8 µg/mL (≈ 19.8 µM)
MIC [13]: 16 µg/mL (≈ 39.6 µM)
MIC [14]: 16 µg/mL (≈ 39.6 µM)
MIC [15]: 8 µg/mL (≈ 19.8 µM)
MIC [16]: 8 µg/mL (≈ 19.8 µM)
MIC [17]: 4 µg/mL (≈ 9.89 µM)
MIC [18]: 32 µg/mL (≈ 79.1 µM)
MIC [19]: 64 µg/mL (≈ 158 µM)
MIC [20]: > 64 µg/mL
MIC [21]: > 64 µg/mL
MIC [22]: > 64 µg/mL
Tmax [23]: 2.0 h
MIC [24]: > 64 µg/mL
MIC ([24]; ATCC25285): > 64 µg/mL
MIC ([25]; Cutibacterium acnes): > 64 µg/mL
MIC [25, 37]: >64 µg/mL
MIC [26]: > 64 µg/mL
MIC ([26]; ATCC33559): 64 µg/mL (≈ 158 µM)
MIC [27]: > 64 µg/mL
MIC ([27]; ATCC33560): 64 µg/mL (≈ 158 µM)
MIC [28, 38]: 32 µg/mL (≈ 79.1 µM)
MIC [28, 39]: 16 µg/mL (≈ 39.6 µM)

COc1cc2c(cc1OC)C(OC(=O)CCCC(=O)O)=C(CC1CCN(Cc3ccccc3)CC1)C2 [Donepezil glutaryl enol ester, Donepezil-(Glutaryl) enol ester]
IC50 [29]: 830 nM

COc1cc2c(cc1OC)C(OC(=O)CCCC(=O)N[C@H](C(N)=O)C(C)C)=C(CC1CCN(Cc3ccccc3)CC1)C2 [Donepezil glutaryl valinamide, donepezil[glutaryl-(S)-valinamide]enol ester]
Simulated gastric juice (1 h, 37° C.) % active drug generated [30]: <2.0%
Simulated intestinal juice (2 h, 37° C.) (FaSSIF) % active drug generated [31]: <2.0%
Simulated intestinal juice (2 h, 37° C.) (FeSSIF) % active drug generated [32]: <2.0%
Frel ([33]; individual animals): 85% and 25% and 62% and 44% and 28%
Frel ([33]; mean): 49%
Frel ([34]; individual animals): 97% and 44% and 99% and 64% and 89%
Frel ([34]; mean): 79%
